Source: US9169213B2, “Method of weight management” (Arena Pharmaceuticals, Inc., priority 2012, dated 2015)
Where “and” joins values, the source holds several entries; their conditions need not be identical. Equal entries are not always repeated.

Assays:
Type in all cases: in vivo, human
[1] = BLOOM-DM (APD356-010) Phase 3 study: Week 52 outcomes by Week 12/Week 24 responder status, patients with type 2 diabetes mellitus; conditions: for Diastolic BP, Week 52 Change from Baseline Mean (SE) / HbA1c, Week 52 Change from Baseline Mean (SE) / Heart Rate, Week 52 Change from Baseline Mean (SE) / Systolic BP, Week 52 Change from Baseline Mean (SE): With T2DM
Protocol: APD356-010 (BLOOM-DM) was a 52-week, placebo controlled study that evaluated the effect of two lorcaserin doses (10 mg BID and 10 mg QD) on categorical and total weight loss with concurrent behavior modification in 604 patients with type 2 diabetes mellitus managed with oral hypoglycemic agents. Randomization to the 10 mg once daily group was halted by protocol amendment in order to accelerate enrollment, resulting in final group sizes of 253 (placebo), 95 (lorcaserin QD) and 256 (lorcaserin BID).
(§1) An analysis of early weight loss was performed, at each visit after baseline through Week 24, as a predictor of ultimate weight loss success, as defined by achieving at least about 5% weight loss at 52 weeks, or at least about 10% weight loss at 52 weeks.
Table 3 and Table 4 provide the sensitivity, specificity, positive predicted value (PPV) and negative predictive value (NPV) at Weeks 12 and 24 for at least about 5% and at least about 10% weight loss at Week 52 in different studies. The rounded percent weight loss at Week 12 for at least 5% and at least about 10% weight loss at Week 52 are about 5% and about 6%, respectively. Using the about 6% weight loss at Week 12 as a criterion enhances the PPV for both about 5% and about 10% categorical weight loss at Week 52, but at the expense of excluding about 10% and about 4% more of the about 5% categorical responders at Week 52 in patients without and with diabetes, respectively, based upon NPV. The rounded optimal thresholds at Week 24 for at least about 5% and at least about 10% weight loss at Week 52 are about 6% and about 9%, respectively. Using the 9% weight loss criterion at Week 24 enhances the PPV for both about 5% and about 10% categorical weight loss at Week 52, but at the expense of excluding about 19% and about 9% more of the about 5% categorical responders at Week 52 in patients without and with diabetes, respectively, based upon NPV. As described below, if at least about a 5% weight loss criterion is applied, patients achieving this milestone will achieve an average of about 10.8% weight loss in patients without diabetes and about 9.1% weight loss in patients with diabetes at Week 52.
Tables 6 and 7, below, present weight loss, vital sign, and glycemic changes at Week 52 in pooled patients without diabetes, patients with T2DM, and pooled patients with impaired fasting glucose (IFG; ≧100 mg/dL) who were Week 12 responders.

[2] = Pooled BLOOM and BLOSSOM Phase 3 studies: Week 52 outcomes by Week 12/Week 24 responder status, patients without T2DM; conditions: for Diastolic BP, Week 52 Change from Baseline Mean (SE) / HbA1c, Week 52 Change from Baseline Mean (SE) / Heart Rate, Week 52 Change from Baseline Mean (SE) / Systolic BP, Week 52 Change from Baseline Mean (SE): Without T2DM
Protocol: APD356-009 (“BLOOM”) was a 104-week, placebo controlled study that assessed the safety and efficacy of lorcaserin 10 mg BID in overweight and obese patients, with concurrent behavior modification. The primary efficacy objective during Year 1 was to evaluate weight loss; the primary objective during Year 2 was to assess the ability of lorcaserin to maintain body weight loss that was achieved during Year 1. At study start, each patient received randomized, double blind treatment assignments for Year 1 and for Year 2 (all patients were given a new randomization number for Year 2 to assure that patients and study personnel remained blinded to treatment assignments). All patients assigned to placebo during Year 1 (50% of randomized population) remained on placebo in Year 2. Patients assigned to lorcaserin during Year 1 were randomly assigned to stay on lorcaserin during Year 2 (⅔ of Year 1 lorcaserin patients) or to switch to placebo (⅓ of Year 1 lorcaserin patients).
APD356-011 (“BLOSSOM”) was a 52-week, placebo controlled study that evaluated the effect of two lorcaserin doses (10 mg BID and 10 mg QD) on categorical and total weight loss with concurrent behavior modification. Patients were randomized in a ratio of 2:1:2 to lorcaserin 10 mg BID, 10 mg QD, or placebo.
as §1

[3] = Lorcaserin pivotal phase 3 clinical trial program (NDA summary)
From the text: The NDA submission is based on an extensive data package from lorcaserin's clinical development program that includes 18 clinical trials totaling 8,576 patients. […] About two-thirds of patients achieved at least 5% weight loss and over one-third achieved at least 10% weight loss. On average, patients lost 17 to 18 pounds or about 8% of their weight. Secondary endpoints, including body composition, lipids, cardiovascular risk factors and glycemic parameters improved compared to placebo. In addition, heart rate and blood pressure went down. […] Lorcaserin improved quality of life, and there was no signal for depression or suicidal ideation. The only adverse event that exceeded the placebo rate by 5% was generally mild or moderate, transient headache. Based on a normal BMI of 25, patients in the first phase 3 trial lost about one-third of their excess body weight. The average weight loss was 35 pounds or 16% of body weight for the top quartile of patients in the second phase 3 trial.

[4] = Week 12 Non-responder (<5%), Completers Population, 10 mg BID
[5] = Week 12 Non-responder (<5%), MITT with LOCF, 10 mg BID
[6] = Week 12 Responder (≧5% weight loss), MITT with LOCF, 10 mg BID
[7] = Week 12 Responder (≧5%), Completers Population, 10 mg BID
[8] = Week 12 Nonresponder (5%), 10 mg BID
[9] = Week 12 Responder (5%), 10 mg BID
[10] = of patients with observed Week 12 data, type 2 diabetes, 10 mg BID
[11] = Week 12 Responder (≧5% weight loss), Completers Population, 10 mg BID
[12] = Week 12 responders without diabetes
[13] = of patients with observed Week 12 data, without diabetes, 10 mg BID, listed as Lorcaserin

C[C@H]1CNCCc2ccc(Cl)cc21 [lorcaserin, (R)-8-chloro-1-methyl-2,3,4,5-tetrahydro-1H-3-benzazepine]
Week 52 Weight 5% Responder [1, 4]: 29.0%
Week 52 Weight 10% Responder [1, 4]: 10.0%
Week 52 Weight Mean (SE) Change from Baseline, kg [1, 4]: −3.45 (0.44) kg
Week 52 Weight Mean (SE) Percent Change from Baseline, % [1, 4]: −3.36 (0.42) %
Week 52 Weight 5% Responder [1, 5]: 25.2%
Week 52 Weight 10% Responder [1, 5]: 8.6%
Week 52 Weight Mean (SE) Change from Baseline, kg [1, 5]: −3.20 (0.36) kg
Week 52 Weight Mean (SE) Percent Change from Baseline, % [1, 5]: −3.13 (0.35) %
Week 52 Weight 5% Responder [1, 6]: 71% and 70.5%
Week 52 Weight 10% Responder [1, 6]: 36% and 35.9%
Week 52 Weight Mean (SE) Change from Baseline, kg [1, 6]: −9.26 (0.77) kg
Week 52 Weight Mean (SE) Percent Change from Baseline, % [1, 6]: −9.07 (0.70) %
Week 52 Weight 5% Responder [1, 7]: 70.8%
Week 52 Weight 10% Responder [1, 7]: 40.0%
Week 52 Weight Mean (SE) Change from Baseline, kg [1, 7]: −9.77 (0.89) kg
Week 52 Weight Mean (SE) Percent Change from Baseline, % [1, 7]: −9.49 (0.80) %
change in HbA1c at Week 52 ([1]; Week 12 non-responders with type 2 diabetes): −0.84%
Week 52 reduction in diastolic blood pressure ([1]; Week 12 responders with T2DM): 1.9 mmHg
Week 52 reduction in heart rate ([1]; Week 12 responders with T2DM): 3.2 BPM
Week 52 reduction in systolic blood pressure ([1]; Week 12 responders with T2DM): 2.6 mmHg
A1C W52 Change ([1]; Week 12 responders, patients with T2DM, 10 mg BID): −1.2%
Diastolic BP, Week 52 Change from Baseline Mean (SE) [1, 8]: −1.07 (0.86)
HbA1c, Week 52 Change from Baseline Mean (SE) [1, 8]: −0.84 (0.09)
Heart Rate, Week 52 Change from Baseline Mean (SE) [1, 8]: −0.87 (0.73)
Systolic BP, Week 52 Change from Baseline Mean (SE) [1, 8]: −0.55 (1.11)
Diastolic BP, Week 52 Change from Baseline Mean (SE) [1, 9]: −1.91 (1.01)
HbA1c, Week 52 Change from Baseline Mean (SE) [1, 9]: −1.20 (0.11)
Heart Rate, Week 52 Change from Baseline Mean (SE) [1, 9]: −3.24 (1.21)
Systolic BP, Week 52 Change from Baseline Mean (SE) [1, 9]: −2.59 (1.73)
Week 12 Non-Responder, percentage of patients [1, 10]: 139 (64.1%)
Week 12 Responder (at least 5% weight loss at Week 12), percentage of patients [1, 10]: 35.9%
Week 12 Responder (at least 5% weight loss at Week 12), percentage of patients ([1]; of patients with observed Week 12 data, type 2 diabetes, 10 mg BID, listed as Lorcaserin): 78 (35.9%)
average weight loss at Week 52 ([1]; patients with diabetes achieving at least about 5% weight loss at Week 12): about 9.1%
Week 52 Weight 5% Responder [2, 4]: 35.9%
Week 52 Weight 10% Responder [2, 4]: 7.4%
Week 52 Weight Mean (SE) Change from Baseline, kg [2, 4]: −3.50 (0.18) kg
Week 52 Weight Mean (SE) Percent Change from Baseline, % [2, 4]: −3.44 (0.18) %
Week 52 Weight 10% Responder [2, 5]: 4.7%
Week 52 Weight Mean (SE) Change from Baseline, kg [2, 5]: −2.76 (0.12) kg
Week 52 Weight Mean (SE) Percent Change from Baseline, % [2, 5]: −2.73 (0.12) %
Week 52 Weight 5% Responder [2, 11]: 85.8%
Week 52 Weight 10% Responder [2, 11]: 55.9%
Week 52 Weight Mean (SE) Change from Baseline, kg [2, 11]: −11.31 (0.21) kg
Week 52 Weight Mean (SE) Percent Change from Baseline, % [2, 11]: −11.52 (0.21) %
Week 52 Weight 10% Responder [2, 6]: 49.8%
Week 52 Weight Mean (SE) Change from Baseline, kg [2, 6]: −10.63 (0.18) kg
Week 52 Weight Mean (SE) Percent Change from Baseline, % [2, 6]: −10.84 (0.18) %
Week 52 reduction in diastolic blood pressure [2, 12]: 2.5 mmHg
Week 52 reduction in heart rate [2, 12]: 2.5 BPM
Week 52 reduction in systolic blood pressure [2, 12]: 3.4 mmHg
Diastolic BP, Week 52 Change from Baseline Mean (SE) [2, 8]: −1.02 (0.25)
HbA1c, Week 52 Change from Baseline Mean (SE) [2, 8]: −0.05 (0.01)
Heart Rate, Week 52 Change from Baseline Mean (SE) [2, 8]: −0.29 (0.26)
Systolic BP, Week 52 Change from Baseline Mean (SE) [2, 8]: −0.82 (0.34)
Diastolic BP, Week 52 Change from Baseline Mean (SE) [2, 9]: −2.52 (0.25)
HbA1c, Week 52 Change from Baseline Mean (SE) [2, 9]: −0.18 (0.01)
Heart Rate, Week 52 Change from Baseline Mean (SE) [2, 9]: −2.45 (0.26)
Systolic BP, Week 52 Change from Baseline Mean (SE) [2, 9]: −3.39 (0.34)
Week 12 Non-Responder (<5% wt loss), percentage of patients ([2]; of patients with observed Week 12 data, without diabetes, 10 mg BID): 1,286/2,537(50.7%)
Week 12 Non-Responder (<5% wt loss), percentage of patients [2, 13]: 1286 (50.7%)
Week 12 Responder (at least 5% weight loss at Week 12), percentage of patients [2, 13]: 1251 (49.3%)
average weight loss at Week 52 ([2]; patients without diabetes achieving at least about 5% weight loss at Week 12): about 10.8%
risk of cardiac valvulopathy ([3]; phase 3 program): did not increase
average weight lost, of their weight ([3]; pivotal phase 3 program): about 8%
average weight loss of body weight, top quartile of patients ([3]; second phase 3 trial): 16%
average weight loss, top quartile of patients ([3]; second phase 3 trial): 35 pounds
